Reference: PubChem BioAssay (NCI)
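Tested at 5 concentrations; 48 h exposure; 96-well plates; endpoints linearly interpolated, else capped at highest concentration. GI50: concentration for 50% inhibition of growth. TGI is the concentration that stops growth completely.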

Tests used:
Experiment in all cases: NCI anticancer screen, dose series, 48 h
CCRF-CEM leukemia = system: CCRF-CEM leukemia
HCT-116 colon = system: HCT-116 colon
HOP-62 NSCLC = system: HOP-62 NSCLC
HT29 colon = system: HT29 colon
SNB-75 CNS = system: SNB-75 CNS
T-47D breast = system: T-47D breast
TK-10 renal = system: TK-10 renal
EKVX NSCLC = system: EKVX NSCLC

| SMILES | GI50 (CCRF-CEM leukemia) [µM] | TGI (CCRF-CEM leukemia) [µM] | GI50 (HCT-116 colon) [µM] | TGI (HCT-116 colon) [µM] | GI50 (HOP-62 NSCLC) [µM] | TGI (HOP-62 NSCLC) [µM] | GI50 (HT29 colon) [µM] | TGI (HT29 colon) [µM] | GI50 (SNB-75 CNS) [µM] | TGI (SNB-75 CNS) [µM] | GI50 (T-47D breast) [µM] | TGI (T-47D breast) [µM] | GI50 (TK-10 renal) [µM] | TGI (TK-10 renal) [µM] | TGI (EKVX NSCLC) [µM] | GI50 (EKVX NSCLC) [µM] |
| --- | --- | --- | --- | --- | --- | --- | --- | --- | --- | --- | --- | --- | --- | --- | --- | --- |
| O=C(c1ccc(F)c(F)c1Nc1ccc(I)cc1F)N1CC(O)([C@H]2CCCCN2)C1 | 12.5 | 29.4 | 0.649 | 11.7 | 1.97 | 17.3 | 0.0894 | 10.9 | 5.96 | 20.5 | 11.6 | 26 | 1.4 | 15.3 | – | – |
| O=c1oc2c(Br)c(O)c(Br)cc2c2ccccc12 | – | 65.4 | – | 92.6 | – | > 100 | – | > 100 | – | 78.9 | – | 96.5 | – | > 100 | 67.4 | – |
| NC(=O)c1ncn(C2OC(CO)C(O)C2O)n1 (centres undefined) | 4.73 | 49.6 | 45.1 | > 100 | > 100 | > 100 | 14.2 | > 100 | – | – | 49.2 | > 100 | > 100 | > 100 | > 100 | 70.2 |
| COC(=O)C1=C(C(=O)Nc2cccnc2)C2OC1(C(Cc1ccccc1)Oc1ccccc1)C1OC21 (centres undefined) | 0.36 | 2.14 | 2.01 | 4.23 | 13.2 | 26.1 | 2.73 | 6.97 | 8.28 | 21.1 | 2.02 | 4.86 | 1.51 | 2.85 | 27.2 | 11.8 |
| CC(/C=C/C=C/C=C/C=C/C=C/C(O)=C1/C(=O)C(CCC(=O)O)N(C)C1=O)=C\C(C)C(OC1CC(O)C(O)C(C)O1)C(C)C (centres undefined) | – | 8.47 | – | 7.15 | – | 3.68 | – | 14 | – | 22.8 | – | – | – | 7.92 | 12.4 | – |
| CCCCC(SC(=S)N(CC)CC)C(=O)Nc1nc(CC(=O)OCC)cs1 (centres undefined) | – | – | 29.8 | > 100 | > 100 | > 100 | 32.7 | > 100 | 67 | > 100 | 24.7 | > 100 | 82.9 | > 100 | > 100 | 45.7 |
| COc1cc(C2=Nc3c/c(=C\c4c(O)[nH]c5ccc(Cl)cc45)ccc3=N2)cc(OC)c1OC | 2.29 | 8.55 | 1.56 | 3.54 | 1.95 | 4.09 | 2.11 | 4.5 | 1.78 | 10.6 | 9.13 | 37.3 | 5.76 | 17.4 | – | – |
| Nc1ccn(C2OC(CO[P+](=O)OC3C(CO[P+](=O)OC4C(CO[P+](=O)OC5C(CO[P+](=O)OC6C(CO[P+](=O)OC7C(CO[P+](=O)OC8C(CO[P+](=O)OC9C(CO[P+](=O)OC%10C(CO[P+](=O)OC%11C(CO)OC(n%12ccc(N)nc%12=O)C%11(F)F)OC(n%11ccc(N)nc%11=O)C%10(F)F)OC(n%10ccc(N)nc%10=O)C9(F)F)OC(n9ccc(N)nc9=O)C8(F)F)OC(n8ccc(N)nc8=O)C7(F)F)OC(n7ccc(N)nc7=O)C6(F)F)OC(n6ccc(N)nc6=O)C5(F)F)OC(n5ccc(N)nc5=O)C4(F)F)OC(n4ccc(N)nc4=O)C3(F)F)C(O)C2(F)F)c(=O)n1 (centres undefined) | – | – | – | > 100 | 0.0175 | – | 1.32 | > 100 | – | – | – | > 100 | > 100 | > 100 | > 100 | > 100 |
| NCC(=O)Nc1ccc(-n2nc(C(F)(F)F)cc2-c2ccc3c(ccc4ccccc43)c2)cc1 | 0.746 | 4.16 | 0.761 | 2 | 1.32 | 2.74 | 0.937 | 2.27 | 1.26 | 2.79 | 1.62 | 3 | 1.49 | 2.87 | – | – |
| Clc1cccc(Cn2cc(Cc3cn(Cc4cccc(Cl)c4)c4ccccc34)c3ccccc32)c1 | > 100 | > 100 | > 100 | > 100 | > 100 | > 100 | > 100 | > 100 | > 100 | > 100 | > 100 | > 100 | 92.6 | > 100 | – | – |
| COc1ccc(Nc2nc(NCc3ccccc3)c3ccccc3n2)cc1 | 2.76 | 9.19 | – | – | 10.1 | 22.4 | 3.48 | 11.1 | 7.98 | 22.4 | 1.74 | 3.4 | 8.45 | 22 | – | – |
| CCCCN(CCCC)c1cc(C(=O)CCCCCN)c2ccccc2n1 | 3.2 | 7.32 | 1.78 | 3.16 | 1.76 | 3.53 | 2 | 3.57 | 1.71 | 3.21 | – | – | 1.94 | 3.5 | 23.1 | 4.99 |
| Cn1c(=O)c(Sc2ccccc2F)cc2cnc(NC3CCOCC3)nc21 | > 25 | > 25 | > 25 | > 25 | > 25 | > 25 | > 25 | > 25 | > 25 | > 25 | > 25 | > 25 | > 25 | > 25 | – | – |
| Cc1cc(N2CCOCC2)nc(N(CCNc2ccnc3cc(Cl)ccc23)Cc2ccco2)n1 | 3.18 | > 100 | – | – | 3.62 | 31.3 | 1.92 | 5.53 | 2.59 | 7.77 | 2.13 | 4.92 | 2.71 | 9.62 | 35.4 | 12.7 |
| O=[N+]([O-])c1ccc(Oc2cccnc2)c([N+](=O)[O-])c1 | 3.22 | 24.8 | 2.43 | 6.22 | 5.95 | 27.9 | 3.5 | 13.8 | 2.76 | 38.4 | 7.3 | 30.1 | – | – | 32.2 | 14.6 |
| C=CC[Se]C(=O)c1ccccc1OC(C)=O | 2.42 | 7.06 | – | – | – | – | 2.65 | > 100 | 1.38 | 2.72 | 2.45 | 6.06 | – | – | – | – |
| COc1cc(-c2nn(C)nc2-c2cc3ccccc3s2)cc(OC)c1OC | 0.22 | > 100 | 0.0738 | > 100 | 0.553 | > 100 | 0.0558 | 0.393 | – | – | > 100 | > 100 | 0.578 | > 100 | > 100 | 0.466 |
